According to paper PMC3914206:

Key:
Assay type in all cases: binding
Details in all cases: Compound Concentration 10 µM
panel of 442 kinases [1] = molecular target: T1, panel of 442 kinases (Homo sapiens, UniProt P42336, Q546K)
T1 construct: purchased KINOMEscan
Excerpt: (§1) We assessed the selectivity of members of this scaffold using the KINOMEscan methodology across a near comprehensive panel of 442 kinases [[18,27]].

panel of 442 kinases [2] = molecular target: T2, panel of 442 kinases (Homo sapiens, UniProt Q8NE63)
T2 construct: purchased KINOMEscan
T2 sequence (Q8NE63 1-616): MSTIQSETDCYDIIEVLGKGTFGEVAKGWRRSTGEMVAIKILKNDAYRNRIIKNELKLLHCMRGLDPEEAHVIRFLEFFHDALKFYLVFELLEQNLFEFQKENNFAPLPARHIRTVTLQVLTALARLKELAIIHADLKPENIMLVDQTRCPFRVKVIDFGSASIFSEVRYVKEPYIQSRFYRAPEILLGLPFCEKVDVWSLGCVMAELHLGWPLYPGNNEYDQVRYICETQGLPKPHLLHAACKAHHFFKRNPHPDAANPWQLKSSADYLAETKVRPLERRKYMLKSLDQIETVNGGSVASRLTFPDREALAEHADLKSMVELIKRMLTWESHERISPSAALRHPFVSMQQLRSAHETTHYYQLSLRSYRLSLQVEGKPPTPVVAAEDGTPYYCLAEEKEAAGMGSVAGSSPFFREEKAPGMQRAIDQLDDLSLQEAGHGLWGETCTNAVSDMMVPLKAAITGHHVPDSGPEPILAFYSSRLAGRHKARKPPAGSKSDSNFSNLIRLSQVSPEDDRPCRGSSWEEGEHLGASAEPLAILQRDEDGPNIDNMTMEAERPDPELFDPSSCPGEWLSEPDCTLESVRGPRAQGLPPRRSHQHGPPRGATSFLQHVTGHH
Excerpt: as §1

panel of 442 kinases [3] = molecular target: T3, panel of 442 kinases (Homo sapiens, UniProt O94921)
T3 construct: purchased KINOMEscan
Excerpt: as §1

T1 sequence (P42336 whole entry Q546K): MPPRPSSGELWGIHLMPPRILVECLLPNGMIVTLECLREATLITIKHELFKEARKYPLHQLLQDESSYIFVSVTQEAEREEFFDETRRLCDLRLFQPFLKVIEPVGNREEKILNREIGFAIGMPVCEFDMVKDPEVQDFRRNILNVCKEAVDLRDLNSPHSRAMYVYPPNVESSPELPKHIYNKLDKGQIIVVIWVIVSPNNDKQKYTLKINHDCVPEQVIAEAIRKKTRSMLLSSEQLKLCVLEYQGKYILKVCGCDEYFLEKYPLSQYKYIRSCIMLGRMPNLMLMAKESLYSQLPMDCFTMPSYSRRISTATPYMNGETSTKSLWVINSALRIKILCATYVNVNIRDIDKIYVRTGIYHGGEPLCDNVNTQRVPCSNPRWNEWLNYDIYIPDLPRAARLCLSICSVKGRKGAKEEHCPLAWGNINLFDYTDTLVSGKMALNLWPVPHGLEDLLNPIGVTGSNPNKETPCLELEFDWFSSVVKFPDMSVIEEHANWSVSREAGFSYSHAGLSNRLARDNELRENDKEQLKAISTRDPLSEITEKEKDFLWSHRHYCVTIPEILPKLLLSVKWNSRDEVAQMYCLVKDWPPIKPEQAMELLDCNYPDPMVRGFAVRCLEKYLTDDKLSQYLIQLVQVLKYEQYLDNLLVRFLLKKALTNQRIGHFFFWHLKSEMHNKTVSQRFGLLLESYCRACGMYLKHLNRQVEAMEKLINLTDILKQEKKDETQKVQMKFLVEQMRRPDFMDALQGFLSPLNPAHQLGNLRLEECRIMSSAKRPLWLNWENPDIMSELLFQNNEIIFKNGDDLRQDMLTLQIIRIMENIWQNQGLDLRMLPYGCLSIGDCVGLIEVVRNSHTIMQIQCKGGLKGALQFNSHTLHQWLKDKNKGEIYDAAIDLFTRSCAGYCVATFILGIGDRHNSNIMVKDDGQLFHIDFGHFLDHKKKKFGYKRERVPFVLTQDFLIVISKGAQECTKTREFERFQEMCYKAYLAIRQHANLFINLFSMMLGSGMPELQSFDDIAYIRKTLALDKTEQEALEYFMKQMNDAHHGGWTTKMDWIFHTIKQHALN
T3 sequence (O94921 whole entry): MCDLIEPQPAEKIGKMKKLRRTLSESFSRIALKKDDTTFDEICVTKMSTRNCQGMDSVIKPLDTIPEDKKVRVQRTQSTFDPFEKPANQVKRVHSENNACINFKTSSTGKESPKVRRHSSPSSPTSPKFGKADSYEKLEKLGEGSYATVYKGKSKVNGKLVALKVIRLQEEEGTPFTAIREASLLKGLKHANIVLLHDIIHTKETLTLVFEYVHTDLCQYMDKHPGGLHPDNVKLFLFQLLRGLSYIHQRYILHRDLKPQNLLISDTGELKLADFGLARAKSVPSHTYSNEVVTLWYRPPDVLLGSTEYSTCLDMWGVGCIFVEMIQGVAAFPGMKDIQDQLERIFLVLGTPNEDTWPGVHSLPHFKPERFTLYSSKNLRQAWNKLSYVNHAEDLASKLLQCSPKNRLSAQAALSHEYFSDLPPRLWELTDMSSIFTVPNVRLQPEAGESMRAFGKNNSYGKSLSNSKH

Row | SMILES | KINOMEscan: PIK3CA(Q546K) (panel of 442 kinases [1]) | KINOMEscan: HIPK4 (panel of 442 kinases [2]) | KINOMEscan: PFTK1 (panel of 442 kinases [3])
1 | COc1cc(C(=O)N2CCC(N3CCN(C)CC3)CC2)ccc1Nc1ncc2c(n1)N1CCc3cccc(c31)C(=O)N2C [Compound 24] | 98 | 50 | –
2 | CCOc1cc(C(=O)N2CCC(N3CCN(C)CC3)CC2)ccc1Nc1ncc2c(n1)N(C1CCCC1)c1ccccc1C(=O)N2C [Compound 26] | 99 | 100 | 100
3 | COc1cc(C(=O)N2CCC(N3CCN(C)CC3)CC2)ccc1Nc1ncc2c(n1)N(C1CCCC1)c1ccccc1C(=O)N2C [Compound 25, 11-cyclopentyl-2-((2-methoxy-4-(4-(4-methylpiperazin-1-yl)piperidine-1-carbonyl)phenyl)amino)-5-methyl-5H-benzo[e]pyrimido[5,4-b][1,4]diazepin-6(11H)-one] | 100 | 87 | 100
4 | COc1cc(C(=O)N2CCC(N3CCN(C)CC3)CC2)ccc1Nc1ncc2c(n1)N(C)c1ccccc1C(=O)N2C [15 (LRRK2-IN-1)] | 91 | 100 | 81
